Blank lines part the entries; values can stand above or below the molecule they belong to.
Key:
[1] = system: SU-DHL-6; assay: Antiproliferative against activity human SU-DHL-6 cells assessed as inhibition of cell growth incubated for 72 hrs by Celltiter-luminescence analysis; format: functional, cell-based; conditions: SU-DHL-6, 72 h
[2] = target: T1, Bromodomain-containing protein 4 (Homo sapiens, UniProt O60885); assay: Inhibition of His-tagged BRD4-BD1 (unknown origin) at 10 nM incubated for 30 mins by Alphascreen assay relative to control
[3] = target: PI3-kinase p110-delta/p85-alpha (Homo sapiens, UniProt O00329); assay: Inhibition of p110delta/p85alpha (unknown origin) incubated for 2 hrs in presence of ATP by ADP-kinaseGlo reagent based assay; format: protein-complex assay
[4] = target: T1, Bromodomain-containing protein 4; assay: Inhibition of His-tagged BRD4-BD1 (unknown origin) incubated for 30 mins in presence of ATP by Alphascreen assay
[5] = target: PI3-kinase p110-delta/p85-alpha (Homo sapiens) (UniProt P27986+O00329); assay: Inhibition of p110delta/p85alpha (unknown origin) at 100 nM incubated for 2 hrs in presence of ATP by ADP-kinaseGlo reagent based assay relative to control; format: protein-complex assay
[6] = system: SUD4; assay: Antiproliferative against activity human SU-DHL-4 cells assessed as inhibition of cell growth incubated for 72 hrs by Celltiter-luminescence analysis; format: functional, cell-based; conditions: SU-DHL-4, 72 h
[7] = target: Bromodomain-containing protein 3 (Homo sapiens, UniProt Q15059); assay: Inhibition of His-tagged BRD3-BD1 (unknown origin) incubated for 30 mins in presence of ATP by Alphascreen assay
[8] = system: SU-DHL-6; assay: Antitumor activity against human SU-DHL-6 cells xenografted in female BALB/c mouse model assessed as downregulation of Ki67 level in tumor at 20 mg/kg, po administered once daily via gavage for 15 days by immunohistochemical staining based analysis; format: functional, organism-based; conditions: time 15.0 day
[9] = Toxicity in female BALB/c mouse model xenografted with human SU-DHL-6 cells assessed as effect on heart histopathology at 20 mg/kg, po administered once daily via gavage for 15 days by H and E staining based analysis; format: organism-based; conditions: in vivo, 360 h, time 15 day
[10] = Toxicity in female BALB/c mouse model xenografted with human SU-DHL-6 cells assessed as effect on lung histopathology at 20 mg/kg, po administered once daily via gavage for 15 days by H and E staining based analysis; format: organism-based; conditions: in vivo, 360 h, time 15 day
[11] = Toxicity in female BALB/c mouse model xenografted with human SU-DHL-6 cells assessed as effect on body weight at 20 mg/kg, po administered once daily via gavage for 15 days; format: organism-based; conditions: in vivo, 360 h, time 15 day
[12] = Toxicity in female BALB/c mouse model xenografted with human SU-DHL-6 cells assessed as effect on liver histopathology at 20 mg/kg, po administered once daily via gavage for 15 days by H and E staining based analysis; format: organism-based; conditions: in vivo, 360 h, time 15 day
[13] = system: SUD4; assay: Induction of apoptosis in human SU-DHL-4 cells assessed as viable cells at 1 uM incubated for 24 hrs by Annexin V-FITC/PI staining based flow cytometric analysis (reference value: 65.2 %); format: functional; conditions: read-out: Activity
[14] = target: Phosphatidylinositol 4,5-bisphosphate 3-kinase catalytic subunit gamma isoform (Homo sapiens, UniProt P48736); assay: Inhibition of PI3Kgamma (unknown origin) incubated for 2 hrs in presence of ATP by ADP-kinaseGlo reagent based assay
[15] = Toxicity in female BALB/c mouse model xenografted with human SU-DHL-6 cells assessed as effect on kidney histopathology at 20 mg/kg, po administered once daily via gavage for 15 days by H and E staining based analysis; format: organism-based; conditions: in vivo, 360 h, time 15 day
[16] = Toxicity in female BALB/c mouse model xenografted with human SU-DHL-6 cells assessed as effect on spleen histopathology at 20 mg/kg, po administered once daily via gavage for 15 days by H and E staining based analysis; format: organism-based; conditions: in vivo, 360 h, time 15 day
[17] = system: SU-DHL-6; assay: Induction of apoptosis in human SU-DHL-6 cells assessed as late apoptotic cells at 1 uM incubated for 24 hrs by Annexin V-FITC/PI staining based flow cytometric analysis (reference value: 6.43 %); format: functional
[18] = target: Serine/threonine-protein kinase mTOR (Homo sapiens, UniProt P42345); assay: Inhibition of mTOR (unknown origin) incubated for 2 hrs in presence of ATP by ADP-kinaseGlo reagent based assay
[19] = system: SUD4; assay: Induction of apoptosis in human SU-DHL-4 cells assessed as necrotic cells at 1 uM incubated for 24 hrs by Annexin V-FITC/PI staining based flow cytometric analysis (reference value: 0.642 %); format: functional
[20] = system: SU-DHL-6; assay: Antitumor activity against human SU-DHL-6 cells xenografted in female BALB/c mouse model assessed as tumor growth inhibition at 20 mg/kg, po administered once daily via gavage for 15 days relative to control; format: functional; conditions: SU-DHL-6, 360 h, time 15 day, read-out: TGI
[21] = system: SU-DHL-6; assay: Induction of apoptosis in human SU-DHL-6 cells assessed as necrotic cells at 1 uM incubated for 24 hrs by Annexin V-FITC/PI staining based flow cytometric analysis (reference value: 0.246 %); format: functional
[22] = system: HUVEC; assay: Cytotoxicity against HUVEC cells assessed as inhibition of cell growth at 1 uM incubated for 72 hrs by Celltiter-luminescence analysis; format: toxicity, cell-based; conditions: human
[23] = target: Bromodomain-containing protein 2 (Homo sapiens, UniProt P25440); assay: Inhibition of His-tagged BRD2-BD1 (unknown origin) incubated for 30 mins in presence of ATP by Alphascreen assay
[24] = system: SU-DHL-6; assay: Induction of apoptosis in human SU-DHL-6 cells assessed as viable cells at 1 uM incubated for 24 hrs by Annexin V-FITC/PI staining based flow cytometric analysis (reference value: 61.2 %); format: functional; conditions: read-out: Activity
[25] = system: SU-DHL-6; assay: Induction of apoptosis in human SU-DHL-6 cells assessed as early apoptotic cells at 1 uM incubated for 24 hrs by Annexin V-FITC/PI staining based flow cytometric analysis (reference value: 32.1 %); format: functional
[26] = system: WI-38; assay: Cytotoxicity against human WI-38 cells assessed as inhibition of cell growth at 1 uM incubated for 72 hrs by Celltiter-luminescence analysis; format: toxicity, cell-based; conditions: wi-38, 72 h
[27] = system: SUD4; assay: Induction of apoptosis in human SU-DHL-4 cells assessed as late apoptotic cells at 1 uM incubated for 24 hrs by Annexin V-FITC/PI staining based flow cytometric analysis (reference value: 6.74 %); format: functional
[28] = system: SUD4; assay: Induction of apoptosis in human SU-DHL-4 cells assessed as early apoptotic cells at 1 uM incubated for 24 hrs by Annexin V-FITC/PI staining based flow cytometric analysis (reference value: 25.3 %); format: functional
[29] = target: T1, Bromodomain-containing protein 4; assay: Inhibition of His-tagged BRD4-BD2 (unknown origin) incubated for 30 mins in presence of ATP by Alphascreen assay
[30] = target: Bromodomain testis-specific protein (Homo sapiens, UniProt Q58F21); assay: Inhibition of His-tagged BRDT-BD1 (unknown origin) incubated for 30 mins in presence of ATP by Alphascreen assay
[31] = target: Phosphatidylinositol 4,5-bisphosphate 3-kinase catalytic subunit beta isoform (Homo sapiens, UniProt P42338); assay: Inhibition of PI3Kbeta (unknown origin) incubated for 2 hrs in presence of ATP by ADP-kinaseGlo reagent based assay
[32] = system: SUD4; assay: Antiproliferative against activity human SU-DHL-4 cells assessed as inhibition of cell growth incubated for 72 hrs in presence of 10:1 PI-3065:compound by Celltiter-luminescence analysis; format: functional, cell-based; conditions: SU-DHL-4, 72 h
[33] = system: SU-DHL-6; assay: Antiproliferative against activity human SU-DHL-6 cells assessed as inhibition of cell growth incubated for 72 hrs in presence of 10:1 PI-3065:compound by Celltiter-luminescence analysis; format: functional, cell-based; conditions: SU-DHL-6, 72 h

PI3-kinase p110-delta/p85-alpha, sequence (P27986 whole entry): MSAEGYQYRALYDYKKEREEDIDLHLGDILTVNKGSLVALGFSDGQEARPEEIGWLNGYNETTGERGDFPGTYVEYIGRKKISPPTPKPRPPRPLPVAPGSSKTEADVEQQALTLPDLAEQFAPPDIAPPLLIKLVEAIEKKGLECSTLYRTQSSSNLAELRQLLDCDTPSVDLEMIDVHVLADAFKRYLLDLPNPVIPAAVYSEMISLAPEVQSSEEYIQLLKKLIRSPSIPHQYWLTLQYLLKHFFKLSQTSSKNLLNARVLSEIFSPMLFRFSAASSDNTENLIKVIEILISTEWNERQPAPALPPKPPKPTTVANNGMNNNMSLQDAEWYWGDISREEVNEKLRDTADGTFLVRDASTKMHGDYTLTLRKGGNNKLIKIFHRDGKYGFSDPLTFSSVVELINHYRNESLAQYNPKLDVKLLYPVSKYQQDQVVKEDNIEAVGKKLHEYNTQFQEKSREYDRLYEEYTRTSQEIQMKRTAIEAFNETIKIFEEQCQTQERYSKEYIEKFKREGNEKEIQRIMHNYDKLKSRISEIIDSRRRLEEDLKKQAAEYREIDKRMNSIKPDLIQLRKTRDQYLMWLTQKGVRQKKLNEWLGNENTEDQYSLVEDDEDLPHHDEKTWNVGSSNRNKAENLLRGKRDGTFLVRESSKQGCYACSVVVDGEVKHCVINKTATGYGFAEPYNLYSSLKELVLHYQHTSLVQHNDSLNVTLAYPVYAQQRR
PI3-kinase p110-delta/p85-alpha, sequence (O00329 whole entry): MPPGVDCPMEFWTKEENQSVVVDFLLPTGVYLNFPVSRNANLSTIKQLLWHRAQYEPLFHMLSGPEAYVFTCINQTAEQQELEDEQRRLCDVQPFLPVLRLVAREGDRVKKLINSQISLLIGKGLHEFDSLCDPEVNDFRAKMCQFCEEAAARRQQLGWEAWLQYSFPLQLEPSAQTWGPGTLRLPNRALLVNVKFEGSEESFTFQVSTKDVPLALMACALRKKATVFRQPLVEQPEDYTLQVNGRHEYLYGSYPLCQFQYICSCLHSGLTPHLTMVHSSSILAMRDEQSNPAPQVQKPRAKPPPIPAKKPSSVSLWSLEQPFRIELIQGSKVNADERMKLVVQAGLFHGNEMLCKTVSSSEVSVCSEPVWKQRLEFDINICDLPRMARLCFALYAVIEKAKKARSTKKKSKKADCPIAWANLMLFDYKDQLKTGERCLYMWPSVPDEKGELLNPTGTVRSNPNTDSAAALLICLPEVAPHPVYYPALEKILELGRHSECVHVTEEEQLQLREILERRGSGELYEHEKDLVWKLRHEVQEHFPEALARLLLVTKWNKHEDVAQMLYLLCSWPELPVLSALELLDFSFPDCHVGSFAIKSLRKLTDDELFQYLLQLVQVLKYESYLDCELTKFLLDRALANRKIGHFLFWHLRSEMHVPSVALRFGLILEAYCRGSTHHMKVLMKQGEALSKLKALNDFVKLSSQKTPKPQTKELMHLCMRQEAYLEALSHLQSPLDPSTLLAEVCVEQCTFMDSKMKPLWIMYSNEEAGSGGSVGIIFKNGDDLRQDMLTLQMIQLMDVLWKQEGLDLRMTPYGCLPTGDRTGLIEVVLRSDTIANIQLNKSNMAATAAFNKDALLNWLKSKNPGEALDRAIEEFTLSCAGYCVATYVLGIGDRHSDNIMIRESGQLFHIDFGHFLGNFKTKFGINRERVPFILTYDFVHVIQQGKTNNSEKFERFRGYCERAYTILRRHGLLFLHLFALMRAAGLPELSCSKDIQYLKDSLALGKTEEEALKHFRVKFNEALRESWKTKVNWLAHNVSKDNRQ
Phosphatidylinositol 4,5-bisphosphate 3-kinase catalytic subunit beta isoform, sequence (P42338 whole entry, canonical isoform): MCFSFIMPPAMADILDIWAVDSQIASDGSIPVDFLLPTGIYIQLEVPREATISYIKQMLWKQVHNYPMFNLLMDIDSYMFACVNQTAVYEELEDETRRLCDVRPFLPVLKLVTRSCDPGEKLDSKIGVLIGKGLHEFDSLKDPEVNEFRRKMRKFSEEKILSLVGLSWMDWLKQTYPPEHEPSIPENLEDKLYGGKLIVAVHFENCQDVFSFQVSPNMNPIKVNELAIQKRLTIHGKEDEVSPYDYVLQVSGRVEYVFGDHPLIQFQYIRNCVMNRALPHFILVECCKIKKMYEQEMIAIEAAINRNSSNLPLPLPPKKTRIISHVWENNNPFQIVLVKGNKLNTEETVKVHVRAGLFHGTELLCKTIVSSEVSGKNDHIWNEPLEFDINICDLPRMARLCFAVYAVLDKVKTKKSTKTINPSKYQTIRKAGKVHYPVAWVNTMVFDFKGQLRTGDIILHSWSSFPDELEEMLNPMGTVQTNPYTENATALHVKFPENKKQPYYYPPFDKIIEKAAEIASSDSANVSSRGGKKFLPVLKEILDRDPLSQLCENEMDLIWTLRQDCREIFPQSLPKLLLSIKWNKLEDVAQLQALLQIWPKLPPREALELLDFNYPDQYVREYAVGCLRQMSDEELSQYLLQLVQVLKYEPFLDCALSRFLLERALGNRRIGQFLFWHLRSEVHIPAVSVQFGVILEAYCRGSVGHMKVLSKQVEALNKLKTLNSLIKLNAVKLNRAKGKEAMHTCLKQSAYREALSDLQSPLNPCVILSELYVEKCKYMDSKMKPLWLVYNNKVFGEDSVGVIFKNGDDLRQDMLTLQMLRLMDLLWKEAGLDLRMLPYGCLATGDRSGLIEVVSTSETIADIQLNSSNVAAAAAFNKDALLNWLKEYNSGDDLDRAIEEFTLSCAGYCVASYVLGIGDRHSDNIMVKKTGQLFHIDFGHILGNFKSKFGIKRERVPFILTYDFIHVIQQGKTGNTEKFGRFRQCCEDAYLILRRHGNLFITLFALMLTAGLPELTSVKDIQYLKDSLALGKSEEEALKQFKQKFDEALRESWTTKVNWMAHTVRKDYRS
Bromodomain-containing protein 3, sequence (Q15059 whole entry): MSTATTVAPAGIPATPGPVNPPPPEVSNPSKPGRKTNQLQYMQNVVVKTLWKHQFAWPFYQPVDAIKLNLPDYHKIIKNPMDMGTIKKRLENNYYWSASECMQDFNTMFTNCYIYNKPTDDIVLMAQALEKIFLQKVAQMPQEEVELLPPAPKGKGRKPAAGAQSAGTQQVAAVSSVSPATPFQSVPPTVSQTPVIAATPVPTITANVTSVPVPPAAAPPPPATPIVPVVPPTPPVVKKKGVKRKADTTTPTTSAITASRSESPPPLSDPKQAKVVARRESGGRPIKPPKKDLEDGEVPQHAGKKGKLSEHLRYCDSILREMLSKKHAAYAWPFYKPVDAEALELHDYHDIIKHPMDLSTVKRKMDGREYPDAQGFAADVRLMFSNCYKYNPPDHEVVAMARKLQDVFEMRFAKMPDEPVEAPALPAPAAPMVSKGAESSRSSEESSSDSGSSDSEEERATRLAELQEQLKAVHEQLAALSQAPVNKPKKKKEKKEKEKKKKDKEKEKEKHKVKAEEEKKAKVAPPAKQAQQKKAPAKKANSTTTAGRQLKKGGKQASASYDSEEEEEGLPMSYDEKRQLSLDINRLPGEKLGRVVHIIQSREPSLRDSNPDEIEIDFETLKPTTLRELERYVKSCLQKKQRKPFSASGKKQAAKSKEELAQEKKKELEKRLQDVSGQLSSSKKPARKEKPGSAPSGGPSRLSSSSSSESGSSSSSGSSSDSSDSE
Bromodomain-containing protein 2, sequence (P25440 whole entry): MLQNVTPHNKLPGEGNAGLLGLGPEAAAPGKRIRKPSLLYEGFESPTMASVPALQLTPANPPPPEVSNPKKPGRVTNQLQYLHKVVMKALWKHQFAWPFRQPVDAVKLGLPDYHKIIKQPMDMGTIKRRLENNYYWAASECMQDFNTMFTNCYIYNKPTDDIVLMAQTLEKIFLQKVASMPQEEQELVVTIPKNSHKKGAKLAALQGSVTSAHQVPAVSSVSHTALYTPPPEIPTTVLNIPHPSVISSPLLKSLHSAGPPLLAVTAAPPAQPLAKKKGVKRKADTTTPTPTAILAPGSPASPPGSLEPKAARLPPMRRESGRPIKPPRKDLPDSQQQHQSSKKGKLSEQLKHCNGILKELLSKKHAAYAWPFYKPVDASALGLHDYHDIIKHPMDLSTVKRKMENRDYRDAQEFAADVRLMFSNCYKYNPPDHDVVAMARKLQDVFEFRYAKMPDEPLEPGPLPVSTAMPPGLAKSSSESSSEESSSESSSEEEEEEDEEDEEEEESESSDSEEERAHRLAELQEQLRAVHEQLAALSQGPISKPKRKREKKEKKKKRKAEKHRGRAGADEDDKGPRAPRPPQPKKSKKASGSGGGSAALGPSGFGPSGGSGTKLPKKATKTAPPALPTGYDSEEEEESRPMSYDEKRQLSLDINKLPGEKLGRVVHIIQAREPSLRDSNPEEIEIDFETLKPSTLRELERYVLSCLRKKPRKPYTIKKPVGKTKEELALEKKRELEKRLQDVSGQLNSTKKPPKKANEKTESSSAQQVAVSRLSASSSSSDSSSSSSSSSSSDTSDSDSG

Structure (SMILES): Cn1cc(-c2nc(N3CCOCC3)c3sc(CN4CCN(CC5CC5)CC4)cc3n2)c2cc[nH]c2c1=O
IC50 [1]: 53 nM
inhibition [2]: 58.2%
IC50 [3]: 464 nM
IC50 [4]: 7.8 nM
inhibition [5]: 19.5%
IC50 [6]: 220 nM

Structure (SMILES): Cn1ccc(-c2nc(N3CCOCC3)c3sc(CN4CCN(CC5CC5)CC4)cc3n2)cc1=O
inhibition [2]: 4.6%
inhibition [5]: 24.1%

Structure (SMILES): C[C@H](N)C(=O)N1CCN(Cc2cc3nc(-c4cn(C)c(=O)c5[nH]ccc45)nc(N4CCOCC4)c3s2)CC1
inhibition [2]: 59.9%
inhibition [5]: 19.5%

Structure (SMILES): CC(=O)N1CCN(Cc2cc3nc(-c4cn(C)c(=O)c5[nH]ccc45)nc(N4CCOCC4)c3s2)CC1
IC50 [1]: 79 nM
inhibition [2]: 44.2%
IC50 [3]: 108 nM
IC50 [4]: 11 nM
inhibition [5]: 46.9%
IC50 [6]: 166 nM

Structure (SMILES): O=c1cc(N2CCOCC2)oc2c(-c3ccc4c(c3)OCCO4)csc12
IC50 [1]: 518 nM
IC50 [7]: 303 nM
Activity [8]: Active; More Effective Than Sf2523
Activity [9]: Non-toxic
Activity [10]: Non-toxic
Activity [11]: Non-toxic
Activity [12]: Non-toxic
viability at 1 µM [13]: 61.7%
IC50 [14]: 251 nM
Activity [15]: Non-toxic
Activity [16]: Non-toxic
Activity [17]: 5.53%
IC50 [18]: 599 nM
Activity [19]: 1.05%
inhibition in vivo at 20 mg/kg [20]: 62.3%
Activity [21]: 0.61%
Activity [22]: Toxic
IC50 [23]: 383 nM
viability at 1 µM [24]: 60.2%
Activity [25]: 33.6%
Activity [26]: Toxic
IC50 [3]: 158 nM
Activity [27]: 10.4%
Activity [28]: 26.8%
IC50 [4]: 312 nM
IC50 [6]: 1880 nM
IC50 [29]: 235 nM
IC50 [30]: 1230 nM
IC50 [31]: 129 nM

More lines, main results first:

IC50 [1]: 270 nM
inhibition [2]: 32.7%
IC50 [3]: 96 nM
IC50 [4]: 15 nM
inhibition [5]: 45.7%
Structure (SMILES): Cn1cc(-c2nc(N3CCOCC3)c3sc(CN4CCN(S(C)(=O)=O)CC4)cc3n2)c2cc[nH]c2c1=O
IC50 [6]: 665 nM

inhibition [2]: 18.1%
inhibition [5]: 7.7%
Structure (SMILES): Cn1cc(-c2nc(N3CCOCC3)c3sc(CN4CCN(CC5CC5)CC4)cc3n2)cc(N)c1=O

IC50 [1]: 23 nM
IC50 [33]: 10 nM
IC50 [4]: 0.73 nM
Structure (SMILES): CCS(=O)(=O)Nc1ccc(Oc2ccc(F)cc2F)c(-c2cn(C)c(=O)c3[nH]ccc23)c1 [MIVEBRESIB]
IC50 [32]: 14 nM
IC50 [6]: 41 nM

inhibition [2]: 28.2%
inhibition [5]: 16%
Structure (SMILES): Cn1cc(-c2nc(N3CCOCC3)c3sc(CN4CCN(C(=O)CN)CC4)cc3n2)c2cc[nH]c2c1=O

inhibition [2]: 56.8%
inhibition [5]: 16.2%
Structure (SMILES): C[C@@H](N)C(=O)N1CCN(Cc2cc3nc(-c4cn(C)c(=O)c5[nH]ccc45)nc(N4CCOCC4)c3s2)CC1

inhibition [2]: 3%
inhibition [5]: 21.5%
Structure (SMILES): CC(=O)Nc1cc(-c2nc(N3CCOCC3)c3sc(CN4CCN(CC5CC5)CC4)cc3n2)cn(C)c1=O

Reference: ChEMBL document CHEMBL6153089, “Design, Synthesis, and Biological Evaluation of Thieno[3,2-d]pyrimidine Derivatives as the First Bifunctional PI3Kδ Isoform Selective/Bromodomain and Extra-Terminal Inhibitors” (J Med Chem, 2025)
